This is an account of results in patent US20170210723A1, “MOLECULES HAVING PESTICIDAL UTILITY, AND INTERMEDIATES, COMPOSITIONS, AND PROCESSES, RELATED THERETO” (priority 2016, published 2017).

Common to all, as to format: in vivo
The test system of data set [1] is Beet Armyworm (Spodoptera exigua). Briefly: Bioassays on BAW, 128-well diet tray assay. The note with it: Spodoptera exigua, 168 h; 50 μg/cm^2 on artificial diet, second instar larvae, five to seven days; read-out: BAW % Control (or Mortality) rating.
Data set [2] concerns Cabbage Looper (Trichoplusia ni). The experiment in a line: Bioassays on CL, 128-well diet tray assay. The settings on record: Trichoplusia ni, 168 h; 50 μg/cm^2 on artificial diet, second instar larvae, five to seven days; read-out: CL % Control (or Mortality) rating. Summed up:
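Test molecule at 50 μg/cm^2 applied to the artificial diet surface (acetone-water) and dried; one to five second-instar T. ni larvae per well, eight wells per treatment, held at 25° C., 14:10 light-dark for five to seven days. Percent mortality averaged over wells.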

In data set [3] the test system is Yellow Fever Mosquito (Aedes aegypti). Briefly: Bioassays on Yellow Fever Mosquito larvae, 96-well plate. The note with it: from 4000 ppm DMSO master plate, about 1 day-old larvae, 3 days. The procedure:
Master plates containing 400 μg of a molecule dissolved in 100 μL of dimethyl sulfoxide (DMSO) (equivalent to a 4000 ppm solution) are used. A master plate of assembled molecules contains 15 μL per well. To this plate, 135 μL of a 90:10 water:acetone mixture is added to each well. A robot (Biomek® NXP Laboratory Automation Workstation) is programmed to dispense 15 μL aspirations from the master plate into an empty 96-well shallow plate (“daughter” plate). There are 6 reps (“daughter” plates) created per master. The created daughter plates are then immediately infested with YFM larvae.
The day before plates are to be treated, mosquito eggs are placed in Millipore water containing liver powder to begin hatching (4 g. into 400 mL). After the daughter plates are created using the robot, they are infested with 220 μL of the liver powder/larval mosquito mixture (about 1 day-old larvae). After plates are infested with mosquito larvae, a non-evaporative lid is used to cover the plate to reduce drying. Plates are held at room temperature for 3 days prior to grading. After 3 days, each well is observed and scored based on mortality. The results are indicated in the table entitled “Table ABC: Biological Results” (See Table Section). AGRICULTURALLY ACCEPTABLE ACID ADDITION SALTS, SALT DERIVATIVES, SOLVATES, ESTER DERIVATIVES, POLYMORPHS, ISOTOPES, AND RADIONUCLIDES

SMILES strings stand for the structures.

With `C[C@H](CS(=O)(=O)CC(F)(F)F)NC(=O)c1ccc(/C=C/C(c2cc(Cl)c(F)c(Cl)c2)C(F)(F)F)cc1Br` (stereo partly drawn) [F52, 2-Bromo-4-((E)-3-(3,5-dichloro-4-fluorophenyl)-4,4,4-trifluorobut-1-en-1-yl)-N—((R)-1-((2,2,2-trifluoroethyl)sulfonyl)propan-2-yl)benzamide], the mortality at 50 µg/cm2 in data set [1] and in data set [2] was 50 to 100% throughout. Further, the “YFM % Control (or Mortality) rating” value in data set [3] is recorded as “A (80-100)”.
Take `C[C@H](C[S+]([O-])CC(F)(F)F)NC(=O)c1ccc(/C=C/C(c2cc(Cl)c(C#N)c(Cl)c2)C(F)(F)F)cc1C(F)(F)F` (stereo partly drawn) [F53, 4-((E)-3-(3,5-Dichloro-4-cyanophenyl)-4,4,4-trifluorobut-1-en-1-yl)-N-((2R)-1-((2,2,2-trifluoroethyl)sulfinyl)propan-2-yl)-2-(trifluoromethyl)benzamide]: the mortality at 50 µg/cm2 in data set [1] and in data set [2] was 50 to 100% each time. In addition, the “YFM % Control (or Mortality) rating” value in data set [3] is “A (80-100)”.
Consider `CCc1cc(/C=C/C(c2cc(Cl)c(Cl)c(Cl)c2)C(F)(F)F)ccc1C(=O)N[C@H](C)CSCC(F)(F)F` (stereo partly drawn) [F54, 2-Ethyl-4-((E)-4,4,4-trifluoro-3-(3,4,5-trichlorophenyl)but-1-en-1-yl)-N—((R)-1-((2,2,2-trifluoroethyl)thio)propan-2-yl)benzamide], for which the mortality at 50 µg/cm2 in data set [1] and in data set [2] was 50 to 100% each time. In addition, in data set [3], the “YFM % Control (or Mortality) rating” value is recorded as “A (80-100)”.
On to `Cc1cc(/C=C/C(c2cc(Br)cc(Br)c2)C(F)(F)F)ccc1C(=O)N[C@H](C)CSCC(F)(F)F` (stereo partly drawn) [F57, 4-((E)-3-(3,5-Dibromophenyl)-4,4,4-trifluorobut-1-en-1-yl)-2-methyl-N—((R)-1-((2,2,2-trifluoroethyl)thio)propan-2-yl)benzamide], for which the mortality at 50 µg/cm2 in data set [1] and in data set [2] was 50 to 100% in each case. In addition, the “YFM % Control (or Mortality) rating” value in data set [3] is given as “A (80-100)”.
For the molecule `C[C@H](C[S+]([O-])CC(F)(F)F)NC(=O)c1ccc(/C=C/C(c2cc(Br)cc(Br)c2)C(F)(F)F)cc1C(F)(F)F` (stereo partly drawn) [F60, 4-((E)-3-(3,5-Dibromophenyl)-4,4,4-trifluorobut-1-en-1-yl)-N-((2R)-1-((2,2,2-trifluoroethyl)sulfinyl)propan-2-yl)-2-(trifluoromethyl)benzamide], the mortality at 50 µg/cm2 in data set [1] and in data set [2] was 50 to 100% in each case. Moreover, the “YFM % Control (or Mortality) rating” value in data set [3] is reported as “A (80-100)”.
For `C[C@H](CS(=O)(=O)CC(F)(F)F)NC(=O)c1ccc(/C=C/C(c2cc(Br)cc(Br)c2)C(F)(F)F)cc1C(F)(F)F` (stereo partly drawn) [F61, 4-((E)-3-(3,5-Dibromophenyl)-4,4,4-trifluorobut-1-en-1-yl)-N—((R)-1-((2,2,2-trifluoroethyl)sulfonyl)propan-2-yl)-2-(trifluoromethyl)benzamide], the mortality at 50 µg/cm2 in data set [1] and in data set [2] was 50 to 100% each time. Also, the “YFM % Control (or Mortality) rating” value in data set [3] was “A (80-100)”.
`CCSC[C@@H](C)NC(=O)c1ccc(/C=C/C(c2cc(Cl)c(Cl)c(Cl)c2)C(F)(F)F)cc1C(F)(F)F` (stereo partly drawn) [F62, N—((R)-1-(Ethylthio)propan-2-yl)-4-((E)-4,4,4-trifluoro-3-(3,4,5-trichlorophenyl)but-1-en-1-yl)-2-(trifluoromethyl)benzamide]: the mortality at 50 µg/cm2 in data set [1] and in data set [2] was 50 to 100% throughout. Also, the “YFM % Control (or Mortality) rating” value in data set [3] is reported as “A (80-100)”.
Turning to `O=C(NC1(C[S+]([O-])CC(F)(F)F)CC1)c1ccc(/C=C/C(c2cc(Cl)c(Cl)c(Cl)c2)C(F)(F)F)cc1C(F)(F)F` (stereo not drawn) [F63, (E)-4-(4,4,4-Trifluoro-3-(3,4,5-trichlorophenyl)but-1-en-1-yl)-N-(1-(((2,2,2-trifluoroethyl)sulfinyl)methyl)cyclopropyl)-2-(trifluoromethyl)benzamide], the mortality at 50 µg/cm2 in data set [1] and in data set [2] was 50 to 100% in each case. Besides, in data set [3], the “YFM % Control (or Mortality) rating” value was “A (80-100)”.
On to `C[C@H](CSCC(F)(F)F)NC(=O)c1ccc(/C=C/C(c2cc(Br)cc(Br)c2)C(F)(F)F)cc1Cl` (stereo partly drawn) [F64, 2-Chloro-4-((E)-3-(3,5-dibromophenyl)-4,4,4-trifluorobut-1-en-1-yl)-N—((R)-1-((2,2,2-trifluoroethyl)thio)propan-2-yl)benzamide], for which the mortality at 50 µg/cm2 in data set [1] and in data set [2] was 50 to 100% throughout. The “YFM % Control (or Mortality) rating” value in data set [3] is “A (80-100)”.
As for `C[C@H](CS(=O)(=O)CC(F)(F)F)NC(=O)c1ccc(/C=C/C(c2cc(Br)cc(Br)c2)C(F)(F)F)cc1Cl` (stereo partly drawn) [F65, 2-Chloro-4-((E)-3-(3,5-dibromophenyl)-4,4,4-trifluorobut-1-en-1-yl)-N—((R)-1-((2,2,2-trifluoroethyl)sulfonyl)propan-2-yl)benzamide], the mortality at 50 µg/cm2 in data set [1] and in data set [2] was 50 to 100% in each case. The “YFM % Control (or Mortality) rating” value in data set [3] is reported as “A (80-100)”.
For the molecule `Cc1cc(/C=C/C(c2cc(Br)cc(Br)c2)C(F)(F)F)ccc1C(=O)N[C@H](C)CS(=O)(=O)CC(F)(F)F` (stereo partly drawn) [F66, 4-((E)-3-(3,5-Dibromophenyl)-4,4,4-trifluorobut-1-en-1-yl)-2-methyl-N—((R)-1-((2,2,2-trifluoroethyl)sulfonyl)propan-2-yl)benzamide], the mortality at 50 µg/cm2 in data set [1] and in data set [2] was 50 to 100% each time. For the same molecule, in data set [3], the “YFM % Control (or Mortality) rating” value is given as “A (80-100)”.
For the molecule `C[C@H](CSCC(F)(F)F)NC(=O)c1ccc(/C=C/C(c2cc(Cl)c(Cl)c(Cl)c2)C(F)(F)F)cc1Cl` (stereo partly drawn) [F67, 2-Chloro-4-((E)-4,4,4-trifluoro-3-(3,4,5-trichlorophenyl)but-1-en-1-yl)-N—((R)-1-((2,2,2-trifluoroethyl)thio)propan-2-yl)benzamide], the mortality at 50 µg/cm2 in data set [1] and in data set [2] was 50 to 100% each time. Also, in data set [3], the “YFM % Control (or Mortality) rating” value is “A (80-100)”.
Consider `CC[S+]([O-])C[C@@H](C)NC(=O)c1ccc(/C=C/C(c2cc(Cl)c(Cl)c(Cl)c2)C(F)(F)F)cc1C(F)(F)F` (stereo partly drawn) [F69, N-((2R)-1-(Ethylsulfinyl)propan-2-yl)-4-((E)-4,4,4-trifluoro-3-(3,4,5-trichlorophenyl)but-1-en-1-yl)-2-(trifluoromethyl)benzamide], for which the mortality at 50 µg/cm2 in data set [1] and in data set [2] was 50 to 100% in each case. In data set [3], the “YFM % Control (or Mortality) rating” value is on record as “A (80-100)”.
Consider `CCCSC[C@@H](C)NC(=O)c1ccc(/C=C/C(c2cc(Cl)c(Cl)c(Cl)c2)C(F)(F)F)cc1C(F)(F)F` (stereo partly drawn) [F70, N—((R)-1-(Propylthio)propan-2-yl)-4-((E)-4,4,4-trifluoro-3-(3,4,5-trichlorophenyl)but-1-en-1-yl)-2-(trifluoromethyl)benzamide], for which the mortality at 50 µg/cm2 in data set [1] and in data set [2] was 50 to 100% each time. Besides, in data set [3], the “YFM % Control (or Mortality) rating” value was “A (80-100)”.
`CCc1cc(/C=C/C(c2cc(Cl)c(Cl)c(Cl)c2)C(F)(F)F)ccc1C(=O)N[C@H](C)CS(=O)(=O)CC(F)(F)F` (stereo partly drawn) [F71, 2-Ethyl-4-((E)-4,4,4-trifluoro-3-(3,4,5-trichlorophenyl)but-1-en-1-yl)-N—((R)-1-((2,2,2-trifluoroethyl)sulfonyl)propan-2-yl)benzamide]: the mortality at 50 µg/cm2 in data set [1] and in data set [2] was 50 to 100% each time. The “YFM % Control (or Mortality) rating” value in data set [3] is on record as “A (80-100)”.
Regarding `C[C@H](C[S+]([O-])CC(F)(F)F)NC(=O)c1ccc(/C=C/C(c2cc(Br)cc(Br)c2)C(F)(F)F)cc1Cl` (stereo partly drawn) [F72, 2-Chloro-4-((E)-3-(3,5-dibromophenyl)-4,4,4-trifluorobut-1-en-1-yl)-N-((2R)-1-((2,2,2-trifluoroethyl)sulfinyl)propan-2-yl)benzamide], the mortality at 50 µg/cm2 in data set [1] and in data set [2] was 50 to 100% each time. Further, the “YFM % Control (or Mortality) rating” value in data set [3] is “A (80-100)”.
On to `Cc1cc(/C=C/C(c2cc(Br)cc(Br)c2)C(F)(F)F)ccc1C(=O)N[C@H](C)C[S+]([O-])CC(F)(F)F` (stereo partly drawn) [F73, 4-((E)-3-(3,5-Dibromophenyl)-4,4,4-trifluorobut-1-en-1-yl)-2-methyl-N-((2R)-1-((2,2,2-trifluoroethyl)sulfinyl)propan-2-yl)benzamide], for which the mortality at 50 µg/cm2 in data set [1] and in data set [2] was 50 to 100% each time. In data set [3], the “YFM % Control (or Mortality) rating” value was “A (80-100)”.
Take `CC(C)CSC[C@@H](C)NC(=O)c1ccc(/C=C/C(c2cc(Cl)c(Cl)c(Cl)c2)C(F)(F)F)cc1C(F)(F)F` (stereo partly drawn) [F85, N—((R)-1-(Isobutylthio)propan-2-yl)-4-((E)-4,4,4-trifluoro-3-(3,4,5-trichlorophenyl)but-1-en-1-yl)-2-(trifluoromethyl)benzamide]: the mortality at 50 µg/cm2 in data set [1] and in data set [2] was 50 to 100% each time. The “YFM % Control (or Mortality) rating” value in data set [3] is recorded as “A (80-100)”.
